# Results published in ChEMBL document CHEMBL6092169, “Development of selective heterocyclic PDE4 inhibitors for treatment of psoriasis” (Eur J Med Chem, 2024).
# Tests used:
# [1] = target: T1, 3',5'-cyclic-AMP phosphodiesterase 4D (Homo sapiens, UniProt Q08499); experiment: Inhibition of full-length PDE4D2 (unknown origin) using FAM-cAMP as substrate at 1 uM preincubated with compound for 15 mins followed by substrate addition and measured after 30 mins by fluorescence polarization based IMAP assay relative to control; details: time 45.0 min
# [2] = target: T1, 3',5'-cyclic-AMP phosphodiesterase 4D; experiment: Inhibition of full-length PDE4D2 (unknown origin) using FAM-cAMP as substrate preincubated with compound for 15 mins followed by substrate addition and measured after 30 mins by fluorescence polarization based IMAP assay
# RAW264.7 [3] = experiment: Anti-inflammatory activity in mouse RAW264.7 cells assessed as inhibition of LPS-induced TNF-alpha production incubated for 24 hrs by ELISA; assay type: functional, cell-based; details: RAW264.7, 24 h
# [4] = Cytotoxicity against mouse RAW264.7 cells assessed as reduction in cell viability incubated for 24 hrs by CCK-8 assay; assay type: toxicity, cell-based
# [5] = Cytotoxicity against human HaCaT cells assessed as reduction in cell viability incubated for 24 hrs by CCK-8 assay; assay type: toxicity, cell-based
# RAW264.7 [6] = experiment: Anti-inflammatory activity in mouse RAW264.7 cells assessed as inhibition of LPS-induced IL-6 production incubated for 24 hrs by ELISA; assay type: functional, cell-based; details: RAW264.7, 24 h
# HaCaT = experiment: Anti-inflammatory activity in human HaCaT cells assessed as inhibition of M5-induced TNF-alpha production incubated for 24 hrs by ELISA; assay type: functional, cell-based
# RAW264.7 [7] = experiment: Anti-inflammatory activity in mouse RAW264.7 cells assessed as inhibition of LPS-induced TNF-alpha production at 10 uM incubated for 24 hrs by ELISA relative to control; assay type: functional; design: scale not given: the % may be the effect or the level left
# T1 sequence (Q08499 whole entry): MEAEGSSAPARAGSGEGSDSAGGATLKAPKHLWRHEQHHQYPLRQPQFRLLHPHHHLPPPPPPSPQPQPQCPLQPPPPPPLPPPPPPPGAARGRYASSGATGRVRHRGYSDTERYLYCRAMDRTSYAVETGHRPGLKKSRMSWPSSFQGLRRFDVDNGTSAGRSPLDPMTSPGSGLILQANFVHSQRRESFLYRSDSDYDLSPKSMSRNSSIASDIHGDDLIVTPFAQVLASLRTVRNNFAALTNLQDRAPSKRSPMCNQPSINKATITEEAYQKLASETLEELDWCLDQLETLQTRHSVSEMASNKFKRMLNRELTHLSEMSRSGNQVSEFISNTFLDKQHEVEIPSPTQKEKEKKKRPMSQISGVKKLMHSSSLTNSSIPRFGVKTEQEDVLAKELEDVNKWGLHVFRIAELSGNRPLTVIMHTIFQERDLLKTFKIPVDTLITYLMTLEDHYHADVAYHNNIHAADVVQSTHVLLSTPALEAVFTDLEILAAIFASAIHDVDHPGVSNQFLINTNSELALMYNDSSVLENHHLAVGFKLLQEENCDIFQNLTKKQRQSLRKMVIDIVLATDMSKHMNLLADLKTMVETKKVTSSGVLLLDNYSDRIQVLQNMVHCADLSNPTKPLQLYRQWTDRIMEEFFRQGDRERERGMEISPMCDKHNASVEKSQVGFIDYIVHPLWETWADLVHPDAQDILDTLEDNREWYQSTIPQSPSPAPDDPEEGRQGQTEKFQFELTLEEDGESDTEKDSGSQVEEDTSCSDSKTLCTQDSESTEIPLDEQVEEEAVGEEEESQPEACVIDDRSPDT
Structure (SMILES),inhibition [1] [%],Activity (RAW264.7 [7]) [%],other results
COc1cc(-c2nc(C(=O)NCc3c(F)cccc3F)c[nH]2)cc(OC)c1OC(F)F,33.3,,
O=C(NCc1ncccn1)c1c[nH]c(-c2ccc(OC(F)F)c(OCC3CC3)c2)n1,,,IC50 [2]: 0.0005 µM; IC50 (RAW264.7 [3]): 27.3 µM; CC50 at 24 h [4]: > 50 µM; CC50 at 24 h [5]: > 50 µM; IC50 (RAW264.7 [6]): 38.4 µM; IC50 (HaCaT): 19.3 µM
O=C(Nc1ccccc1)c1c[nH]c(-c2ccc(OC(F)F)c(OCC3CC3)c2)n1,64.9,9.32,
O=C(NCc1c(F)cccc1F)c1coc(-c2ccc(OC(F)F)c(OCC3CC3)c2)n1,,9.32,IC50 [2]: 0.0273 µM
O=C(NCC1CCOCC1)c1c[nH]c(-c2ccc(OC(F)F)c(OCC3CC3)c2)n1,93.9,24.03,
O=C(Nc1nccs1)c1coc(-c2ccc(OC(F)F)c(OCC3CC3)c2)n1,57,11.17,
O=C(Nc1nc2ccccc2s1)c1coc(-c2ccc(OC(F)F)c(OCC3CC3)c2)n1,33.4,25.84,
O=C(NCc1cc(F)ccc1F)c1c[nH]c(-c2ccc(OC(F)F)c(OC(F)F)c2)n1,93.6,14.69,
O=C(Nc1nccs1)c1c[nH]c(-c2ccc(OC(F)F)c(OCC3CC3)c2)n1,74.3,,IC50 (RAW264.7 [3]): 59.9 µM
O=C(NCc1ccc2ccccc2c1)c1c[nH]c(-c2ccc(OC(F)F)c(OCC3CC3)c2)n1,82.3,9.03,
O=C(NCc1ccc(F)cc1F)c1c[nH]c(-c2ccc(OC(F)F)c(OCC3CC3)c2)n1,,5.16,IC50 [2]: 0.00474 µM
Cn1ccc(NC(=O)c2c[nH]c(-c3ccc(OC(F)F)c(OCC4CC4)c3)n2)n1,58.8,18.46,

# Now from value to compound, other results behind:
inhibition [1] [%],Structure (SMILES),Activity (RAW264.7 [7]) [%],other results
0.8,COc1cc(-c2nc(C(=O)NCc3ncccn3)c[nH]2)cc(OC)c1OC(F)F,,
83.5,O=C(Nc1ccc2[nH]ccc2c1)c1c[nH]c(-c2ccc(OC(F)F)c(OCC3CC3)c2)n1,21.36,
94.1,COc1ccc(CNC(=O)c2c[nH]c(-c3ccc(OC(F)F)c(OCC4CC4)c3)n2)cn1,7.74,
96.7,O=C(NCc1ccccn1)c1c[nH]c(-c2ccc(OC(F)F)c(OCC3CC3)c2)n1,6.39,
46.2,O=C(O)c1coc(-c2ccc(OC(F)F)c(OCC3CC3)c2)n1,10.47,
39.6,O=C(Nc1ccc2ncsc2c1)c1coc(-c2ccc(OC(F)F)c(OCC3CC3)c2)n1,25.05,
38.8,O=C(Nc1ccccc1)c1coc(-c2ccc(OC(F)F)c(OCC3CC3)c2)n1,15.78,
